# Assay results taken from patent publication US20080070256A1, “Non-Human Animal Models for B-cell Non-Hodgkin's Lymphoma and Uses Thereof” (NATIONAL JEWISH MEDICAL AND RESEARCH CENTER, priority 2006, published 2008).
# Experiments:
# [1] = test system: murine BL cell lines (TBL-1, TBL-8, TBL-9, TBL-14); test: MTS viability assay, murine BL cell lines; assay type: cell-based, mouse; settings: 24 hours
# Description: (§1) The inventors obtained a highly specific pharmacological inhibitor of Syk through a collaboration with Rigel Pharmaceuticals. […] Also tested were the effects of the Syk kinase inhibitor on primary murine BL the inventors obtained from triply transgenic mice (Example 2). In addition, the effects of R408 were tested on three cell lines derived from human BL tumors (Raji, Ramos and Daudi). […] The cells and drug were incubated at a final volume of 200 μl in each well. Each condition was set up in triplicate wells, in any one experiment. […] The plates were read with a Molecular Dynamics ELISA plate reader, at OD 490. The data presented in FIGS. 29A-29D is from one experiment, representative of three independent assays. The error bars represent the standard deviations. […] The cells were cultured for 22 hours with the compound, and pulsed for the last 2 hours with MTS reagent. The O.D.490 absorbance of the wells was determined 24 hours after the beginning of the experiment. All conditions were tested in triplicate wells. The error bars represent the standard deviations of the triplicate wells.
# Using this approach, four primary tumors derived from Eμ-MYC/BCR^HEL/sHEL mice have been tested, three cell lines derived from such tumors (TBL-1, TBL-8 and TBL-14), as well as a T-cell lymphoma cell line (iTLS-10). […] The cells were incubated for an MTS assay as described elsewhere herein. […]
# [2] = test system: tumors derived from Eμ-MYC mice; test: In vivo drug candidate test, transplanted Eμ-MYC tumors (no surface BCR); set-up: species or system mouse; settings: treated for 7 days, starting 21 days after transplant
# From the text: (§2) Cohorts of age and sex matched, syngeneic mice (C57/BL6) are given transplants of tumor cells administered by tail vein injection (inoculum ranges from 10^2-10^6 cells, but all of the mice in one cohort usually get the same dose of cells). The mice are observed daily for 14-21 days for presentation of externally evident clinical signs of hematological malignancies. These include splenomegaly and lymphadenopathy, dehydration, scruffy fur, hunched posture, labored breathing, and an ascending hind limb paralysis. When the mice are visibly sick, they begin treatment with the drug candidate. The mice are either analyzed 24 hours after the last dose of drug in order to ascertain the degree of remission caused by the drug, in an acute manner, or left in the vivarium to determine the extent of survival that is afforded by the treatment, over the normal rate of mortality for untreated, tumor-bearing mice.
# In this experiment, cohorts of 10 mice each were given transplants of tumors derived from Eμ-MYC mice.
# [3] = test system: Raji cells; test: MTS viability assay on Raji cells; assay type: cell-based, human; settings: increasing concentrations
# Description: as §1
# In order to validate the observations obtained in the mouse models of BL, the inventors tested whether the pharmacological inhibition of Syk in a human BL cell line (Raji) also results in the reduced viability of those cells. […]
# [4] = test system: Raji cells; test: Apoptosis of Raji cells by propidium iodide stain (subdiploid population); assay type: cell-based, human; settings: exposure in vitro
# From the text: In order to validate the observations obtained in the mouse models of BL, the inventors tested whether the pharmacological inhibition of Syk in a human BL cell line (Raji) also results in the reduced viability of those cells. […] Similar results are observed upon the shRNA-mediated disruption of Syk expression in Raji cells.
# [5] = test system: Eμ-MYC/BCR^HEL tumors; test: Therapeutic trial on transplanted Eμ-MYC/BCR^HEL tumors (B-CLL model); assay type: in vivo, mouse; settings: daily intravenous injections for 7 days
# Description: Groups of 6 mice were utilized for each of the experimental protocols. Four mice bearing transplanted tumors, and two age and sex matched wild type mice were treated with the same drug and equal frequency. The transplant recipient mice were held until tumors became clinically apparent (approximately 100 days for the Eμ-MYC tumors, 58 days for the Eμ-MYC/BCR^HEL tumors, 21 days for the Eμ-MYC/BCR^HEL/sHEL tumors, and 14 days for the MMTV-rtTA/TRE-MYC/BCR^HEL/sHEL tumors). The mice then received daily injections of the indicated agents for 7 days, as applicable. Mice were either euthanized 24 hours after the last injection of drug, or held indefinitely to ascertain survival. Lymph nodes, spleens and bone marrows were collected and processed to generate single cell suspensions. The cells were counted as described above. An aliquot from the cell suspensions was stained with antibodies for B220, Thy 1.2, Mac-1, IgM^a, B7-2, and CD69, in order to determine the proportion of B-cells, T-cells and myeloid cells, as well as the activation status of the HEL-reactive B-cells. Treatments were performed with cyclosporin A (Bedford laboratories, Bedford Ohio) (2 mg/kg/day), FK506 (Prograf, Fujisawa Healthcare, Deerfield, Ill.) (2 mg/kg/day), rapamycin (Biomol, King of Prussia, Pa.) (2 mg/kg/day), and cyclophosphamide (1 mg/kg/day) (Bristol-Myers Squibb, Princeton, N.J.). […]
# [6] = test system: Eμ-MYC/BCR^HEL/sHEL tumors
# Description: (§3) Groups of 6 mice were utilized for each of the experimental protocols. Four mice bearing transplanted tumors, and two age and sex matched wild type mice were treated with the same drug and equal frequency. The transplant recipient mice were held until tumors became clinically apparent (approximately 100 days for the Eμ-MYC tumors, 58 days for the Eμ-MYC/BCR^HEL tumors, 21 days for the Eμ-MYC/BCR^HEL/sHEL tumors, and 14 days for the MMTV-rtTA/TRE-MYC/BCR^HEL/sHEL tumors). The mice then received daily injections of the indicated agents for 7 days, as applicable. Mice were either euthanized 24 hours after the last injection of drug, or held indefinitely to ascertain survival. Lymph nodes, spleens and bone marrows were collected and processed to generate single cell suspensions. The cells were counted as described above. An aliquot from the cell suspensions was stained with antibodies for B220, Thy 1.2, Mac-1, IgM^a, B7-2, and CD69, in order to determine the proportion of B-cells, T-cells and myeloid cells, as well as the activation status of the HEL-reactive B-cells. Treatments were performed with cyclosporin A (Bedford laboratories, Bedford Ohio) (2 mg/kg/day), FK506 (Prograf, Fujisawa Healthcare, Deerfield, Ill.) (2 mg/kg/day), rapamycin (Biomol, King of Prussia, Pa.) (2 mg/kg/day), and cyclophosphamide (1 mg/kg/day) (Bristol-Myers Squibb, Princeton, N.J.). The therapeutics were suspended in PBS, sterilized by filtration through a 0.22 μm membrane, and administered intravenously through the tail vein.
# (§4) 10^6 cells obtained from tumor-bearing spleen or lymph nodes were transplanted into cohorts of 4-10 mice. […] The tumor bearing and control wild-type mice were then treated daily for seven days with intravenous injections of the various drugs. Mice were either euthanized 24 hours after the last injection of drug, or held indefinitely to ascertain survival. The analysis of tumor burden was performed with cells obtained from lymph nodes and spleens.
# [7] = test system: tumors from the jaws of MMTV-rtTA/TRE-MYC/BCR^HEL/sHEL mice; settings: daily intravenous injections for 7 days
# Description: as §3, §4
# [8] = test system: MMTV-rtTA/TRE-MYC/BCR^HEL/sHEL tumors (DLBCL); settings: mouse, in vivo
# Description: (§5) Tumor cells were harvested from lymph nodes and spleens and transplanted. The recipient mice were held until tumors became clinically apparent. Tumor recipient (clear bars) and wild type (filled bars) mice then received daily injections of the indicated drugs for 7 days of either cyclosporine A (csa), FK506, rapamycin (rap) or cyclophosphamide (cyph). The mice were euthanized 24 hours after the last injection of drug, and lymph nodes were harvested for analysis of either total number of cells or surface markers of donor cells (not shown).
# (§6) Tumor cells were harvested from lymph nodes and spleens and transplanted as described. The recipient mice were held until tumors became clinically apparent. The mice were then either maintained on a normal mouse diet, or switched on to a diet containing doxycycline, that shut off MYC overexpression. The mice were euthanized at the indicated times, and the lymph nodes were collected, used to generate single cell suspensions, cell counts and flow cytometric analysis.
# as §3, §4
# [9] = test system: MMTV-rtTA/TRE-MYC/BCR^HEL/sHEL tumors (FLL); settings: mouse, in vivo
# Description: as §5, §6, §3, §4
# [10] = test system: Eμ-MYC, Eμ-MYC/BCR^HEL/sHEL and MMTV-rtTA/TRE-MYC/BCR^HEL/sHEL jaw tumors; settings: mouse, in vivo
# Description: as §3
# [11] = test system: Eμ-MYC tumors
# Description: Adoptive transfers of cells and transplantation of tumors were done by injecting 10^6 cells intravenously (unless otherwise indicated) into syngeneic (C57/BL6) females ranging in age from 4-6 weeks.
# Groups of 6 mice were utilized for each of the experimental protocols. Four mice bearing transplanted tumors, and two age and sex matched wild type mice were treated with the same drug and equal frequency. The transplant recipient mice were held until tumors became clinically apparent (approximately 100 days for the Eμ-MYC tumors, 58 days for the Eμ-MYC/BCR^HEL tumors, 21 days for the Eμ-MYC/BCR^HEL/sHEL tumors, and 14 days for the MMTV-rtTA/TRE-MYC/BCR^HEL/sHEL tumors). The mice then received daily injections of the indicated agents for 7 days, as applicable. Mice were either euthanized 24 hours after the last injection of drug, or held indefinitely to ascertain survival. Lymph nodes, spleens and bone marrows were collected and processed to generate single cell suspensions. The cells were counted as described above. An aliquot from the cell suspensions was stained with antibodies for B220, Thy 1.2, Mac-1, IgM^a, B7-2, and CD69, in order to determine the proportion of B-cells, T-cells and myeloid cells, as well as the activation status of the HEL-reactive B-cells. […] The therapeutics were suspended in PBS, sterilized by filtration through a 0.22 μm membrane, and administered intravenously through the tail vein.
# 10^6 cells obtained from tumor-bearing spleen or lymph nodes were transplanted into cohorts of 4-10 mice. The recipient mice were held for observation until they developed externally obvious lymphadenopathy (approximately 100 days for the Eμ-MYC tumors, 58 days for the Eμ-MYC/BCR^HEL tumors. The tumor bearing and control wild-type mice were then treated daily for seven days with intravenous injections of the various drugs. Mice were either euthanized 24 hours after the last injection of drug, or held indefinitely to ascertain survival. The analysis of tumor burden was performed with cells obtained from lymph nodes and spleens.
# [12] = test system: tumors derived from Eμ-MYC/BCR^HEL mice; test: In vivo drug candidate test, transplanted murine B-CLL tumors; set-up: species or system mouse
# From the text: In this experiment, cohorts of 20 mice each were given transplants of tumors derived from Eμ-MYC/BCR^HEL (resemble human B-CLL) mice. […] Part of the cohort was euthanized and evaluated for remission acutely (left set of graphs).
# [13] = test system: tumors derived from Eμ-MYC/BCR^HEL/sHEL mice; test: In vivo drug candidate test, transplanted murine BL tumors; set-up: species or system mouse; settings: transient 7 day treatment, starting 20 days after transplant
# From the text: as §2
# In another experiment, depicted in FIG. 33, cohorts of 10 mice each were given transplants of tumors derived from Eμ-MYC/BCR^HEL/sHEL (resemble human BL) mice. 20 days later, when the mice presented externally evident signs of disease, they were treated for 7 days with R788. This cohort was observed over time for kinetics and time frame of mortality following transient treatment with R788.
# [14] = daily intravenous injections for 7 days
compound,measurement,setting,value
COc1cc(Nc2ncc(F)c(Nc3ccc4c(n3)NC(=O)C(C)(C)O4)n2)cc(OC)c1OC [R406],cell viability (MTS),[1],susceptible
same,survival of tumor-bearing mice,[2],does not extend the survival
same,viability of Raji cells (MTS),[3],dose response decrease in viability
same,"apoptosis (subdiploid population, propidium iodide)",[4],undergo apoptosis
O=P1(N(CCCl)CCCl)NCCCO1 (stereo not shown) [cyclophosphamide],response of transplanted Eμ-MYC/BCR^HEL tumors to drug,[5],responded
same,remission,[6]; after seven-day treatment,brief remission
same,survival compared with untreated tumor-bearing mice,"[6]; after seven-day treatment, observed 100 days","died more rapidly than did untreated, tumor-bearing mice"
same,response of transplanted Eμ-MYC/BCR^HEL/sHEL tumors to drug,[6]; [14],responded
same,response of transplanted MMTV-rtTA/TRE-MYC/BCR^HEL/sHEL jaw tumors to drug,[7],responded
same,remission,[8],brief remission
same,survival compared with untreated tumor-bearing mice,[8],"died more rapidly than did untreated, tumor-bearing mice"
same,response of transplanted MMTV-rtTA/TRE-MYC/BCR^HEL/sHEL tumors to drug,[8]; iv,responded
same,remission,[9],brief remission
same,survival compared with untreated tumor-bearing mice,[9],"died more rapidly than did untreated, tumor-bearing mice"
same,response of transplanted MMTV-rtTA/TRE-MYC/BCR^HEL/sHEL tumors to drug,[9]; iv,responded
same,"general cytotoxicity (reduction in T cells, myeloid cells, non-transgenic B cells)",[10],more general cytotoxicity
same,response of the transplanted tumors to drug,[10],strong response
same,tumor regression,[10],tumor regression in each instance
same,tumor regression,[11]; [14],tumor regression in all animals
same,"response of transplanted Eμ-MYC tumors to drug (tumor burden, lymph nodes and spleens)","[11]; daily intravenous injections for 7 days, analysed 24 hours after last injection",strong response
same,"general cytotoxicity (reduction in T-cells, myeloid cells, non-transgenic B-cells)","[11]; tumor-bearing mice, 7 days treatment",more general cytotoxicity
COc1cc(Nc2ncc(F)c(Nc3ccc4c(n3)N(COP(=O)(O)O)C(=O)C(C)(C)O4)n2)cc(OC)c1OC [R788],survival of tumor-bearing mice,[2],"perished at the same rate and time frame as their untreated, tumor-bearing counterparts"
same,survival versus untreated counterparts,[12]; transient 7 day treatment,twice as long
same,tumor burden (number of cells in lymph nodes and spleens),"[12]; treated for 7 days, starting 24 days after transplant",significantly decreased the tumor burden
same,survival versus untreated counterparts,[13],at least twice as long
